Measured values: ChEMBL document CHEMBL2331300, “Inhibition of enterovirus 71 infections and viral IRES activity by Fructus gardeniae and geniposide” (2013)

Assays:
Enterovirus A71 [1] = assay: Antiviral activity against EV71 infected in human RD cells assessed as cell survival rate at 1 to 2 mg/ml after 24 hrs by WST-1 assay; format: functional
Enterovirus A71 [2] = assay: Antiviral activity against EV71 infected in human RD cells assessed as viral RNA transcript level at 2 mg/ml treated 24 hrs prior to infection measured after 24 hrs by real time RT-PCR analysis; format: functional
Enterovirus A71 [3] = assay: Antiviral activity against EV71 infected in human RD cells assessed as inhibition of viral infection at 2 mg/ml treated 24 hrs prior to infection measured after 72 hrs by WST-1 assay; format: functional; details: Enterovirus A
Enterovirus A71 [4] = assay: Antiviral activity against EV71 infected in human RD cells assessed as viral RNA transcript level at 1 mg/ml treated 24 hrs prior to infection measured after 24 hrs by real time RT-PCR analysis; format: functional
RD [5] = assay: Inhibitory activity of EMCV IRES co-transfected with EV71 5' UTR in human RD cells at 2 mg/ml after 24 hrs by luciferase reporter gene assay; format: cell-based; details: Encephalomyocarditis virus
RD [6] = assay: Inhibitory activity of EV71 IRES co-transfected with EMCV IRES in human RD cells at 2 mg/ml after 24 hrs by luciferase reporter gene assay; format: cell-based; details: Enterovirus A71

Row | SMILES | Survival (Enterovirus A71 [1]) | Activity (Enterovirus A71 [2]) [%] | inhibition at 2000 µg/mL (Enterovirus A71 [3]) [%] | Activity (Enterovirus A71 [4]) [%] | inhibition (RD [5]) [%] | inhibition (RD [6]) [%]
1 | CC(/C=C/C=C(\C)C(=O)O[C@@H]1O[C@H](CO[C@@H]2O[C@H](CO)[C@@H](O)[C@H](O)[C@H]2O)[C@@H](O)[C@H](O)[C@H]1O)=C\C=C\C=C(C)\C=C\C=C(/C)C(=O)O[C@@H]1O[C@H](CO[C@@H]2O[C@H](CO)[C@@H](O)[C@H](O)[C@H]2O)[C@@H](O)[C@H](O)[C@H]1O [CROCIN] | >=80% | – | – | – | – | –
2 | COC(=O)C1=CO[C@@H](O)[C@@H]2C(CO)=CC[C@H]12 [GENIPIN] | >=80% | – | – | – | – | –
3 | COC(=O)C1=CO[C@@H](O[C@@H]2O[C@H](CO)[C@@H](O)[C@H](O)[C@H]2O)[C@@H]2C(CO)=CC[C@H]12 [GENIPOSIDE] | >=80% | 20 | 80 | 60 | 50 | 50
4 | O=C(O)C1=CO[C@@H](O[C@@H]2O[C@H](CO)[C@@H](O)[C@H](O)[C@H]2O)[C@@H]2C(CO)=CC[C@H]12 [GENIPOSIDIC ACID] | >=80% | – | – | – | – | –
